# Data reported in ChEMBL document CHEMBL5233215, “Recent developments of chalcones as potential antibacterial agents in medicinal chemistry” (Eur J Med Chem, 2020).
# What was measured:
# Type in all cases: functional
# Bacillus anthracis = assay: Antibacterial activity Bacillus anthracis Sterne 34F2 assessed as inhibition of bacterial growth by CLSI based microbroth dilution assay
# Staphylococcus aureus [1] = assay: Antibacterial activity methicillin-sensitive Staphylococcus aureus ATCC 29213 assessed as inhibition of bacterial growth by CLSI based microbroth dilution assay
# Staphylococcus aureus [2] = assay: Antibacterial activity methicillin-resistant Staphylococcus aureus USA300 assessed as inhibition of bacterial growth by CLSI based microbroth dilution assay
# Staphylococcus aureus [3] = assay: Antibacterial activity Staphylococcus aureus NCIM 2079 assessed as inhibition of bacterial growth incubated for 24 hrs by serial dilution technique
# Bacillus subtilis [4] = assay: Antibacterial activity Bacillus subtilis NCIM 2063 assessed as inhibition of bacterial growth incubated for 24 hrs by serial dilution technique
# Escherichia coli [5] = assay: Antibacterial activity Escherichia coli NCIM 2918 assessed as inhibition of bacterial growth incubated for 24 hrs by serial dilution technique
# Escherichia coli [6] = assay: Antibacterial activity Escherichia coli assessed as inhibition of bacterial growth after 18 hrs by broth dilution method
# Bacillus cereus = assay: Antibacterial activity Bacillus cereus assessed as inhibition of bacterial growth after 18 hrs by broth dilution method
# Staphylococcus aureus [7] = assay: Antibacterial activity Staphylococcus aureus assessed as inhibition of bacterial growth after 18 hrs by broth dilution method
# Bacillus subtilis [8] = assay: Antibacterial activity Bacillus subtilis assessed as inhibition of bacterial growth after 18 hrs by broth dilution method
# [9] = system: Pectobacterium carotovorum; assay: Antibacterial activity Pectobacterium carotovorum assessed as inhibition of bacterial growth after 18 hrs by broth dilution method
# Staphylococcus aureus [10] = assay: Antibacterial activity methicillin-resistant Staphylococcus aureus MRSA ST-1745 assessed as inhibition of bacterial growth incubated for 16 to 24 hrs by broth microdilution assay; details: time 16-24 hrs
# Staphylococcus aureus [11] = assay: Antibacterial activity methicillin-resistant Staphylococcus aureus MRSA ST-2071 assessed as inhibition of bacterial growth incubated for 16 to 24 hrs by broth microdilution assay; details: time 16-24 hrs
# Staphylococcus aureus [12] = assay: Antibacterial activity methicillin-resistant Staphylococcus aureus MRSA ST-2438 assessed as inhibition of bacterial growth incubated for 16 to 24 hrs by broth microdilution assay; details: time 16-24 hrs
# Staphylococcus aureus [13] = assay: Antibacterial activity methicillin-resistant Staphylococcus aureus MRSA B-10732 assessed as inhibition of bacterial growth incubated for 16 to 24 hrs by broth microdilution assay; details: time 16-24 hrs
# Staphylococcus aureus [14] = assay: Antibacterial activity methicillin-resistant Staphylococcus aureus MRSA P-8029 assessed as inhibition of bacterial growth incubated for 16 to 24 hrs by broth microdilution assay; details: time 16-24 hrs
# Staphylococcus aureus [15] = assay: Antibacterial activity methicillin-resistant Staphylococcus aureus MRSA ST-5457 assessed as inhibition of bacterial growth incubated for 16 to 24 hrs by broth microdilution assay; details: time 16-24 hrs
# Staphylococcus aureus [16] = assay: Antibacterial activity methicillin-resistant Staphylococcus aureus MRSA ST-10342 assessed as inhibition of bacterial growth incubated for 16 to 24 hrs by broth microdilution assay; details: time 16-24 hrs
# Staphylococcus aureus [17] = assay: Antibacterial activity methicillin-resistant Staphylococcus aureus MRSA B-10760 assessed as inhibition of bacterial growth incubated for 16 to 24 hrs by broth microdilution assay; details: time 16-24 hrs
# Staphylococcus aureus [18] = assay: Antibacterial activity methicillin-resistant Staphylococcus aureus MRSA ST-3151 assessed as inhibition of bacterial growth incubated for 16 to 24 hrs by broth microdilution assay; details: time 16-24 hrs
# Staphylococcus aureus [19] = assay: Antibacterial activity methicillin-resistant Staphylococcus aureus MRSA P-6642 assessed as inhibition of bacterial growth incubated for 16 to 24 hrs by broth microdilution assay; details: time 16-24 hrs
# Staphylococcus aureus [20] = assay: Antibacterial activity Staphylococcus aureus assessed as inhibition of bacterial growth incubated for 12 to 18 hrs by NCCLS protocol based microdilution method; details: time 12-18 hrs
# Klebsiella pneumoniae = assay: Antibacterial activity Klebsiella pneumoniae assessed as inhibition of bacterial growth incubated for 12 to 18 hrs by NCCLS protocol based microdilution method; details: time 12-18 hrs
# Staphylococcus aureus [21] = assay: Antibacterial activity methicillin-resistant Staphylococcus aureus OM481 assessed as inhibition of bacterial growth by liquid dilution method
# Staphylococcus aureus [22] = assay: Antibacterial activity methicillin-resistant Staphylococcus aureus OM584 assessed as inhibition of bacterial growth by liquid dilution method
# Escherichia coli [23] = assay: Antimicrobial activity against Escherichia coli MTCC 1573 assessed as bacterial growth inhibition incubated for 24 hrs by broth micro dilution method
# Staphylococcus aureus [24] = assay: Antimicrobial activity against Staphylococcus aureus MTCC 1430 assessed as bacterial growth inhibition incubated for 24 hrs by broth micro dilution method
# Pseudomonas aeruginosa = assay: Antimicrobial activity against Pseudomonas aeruginosa MTCC 424 assessed as bacterial growth inhibition incubated for 24 hrs by broth micro dilution method
# Bacillus subtilis [25] = assay: Antimicrobial activity against Bacillus subtilis MTCC 441 assessed as bacterial growth inhibition incubated for 24 hrs by broth micro dilution method
# Staphylococcus aureus [26] = assay: Antibacterial activity methicillin-sensitive Staphylococcus aureus ATCC 25923 assessed as inhibition of bacterial growth after 24 hrs by microdilution broth method
# Staphylococcus aureus [27] = assay: Antibacterial activity methicillin-resistant Staphylococcus aureus ATCC 33591 assessed as inhibition of bacterial growth after 24 hrs by microdilution broth method
# Bacillus subtilis [28] = assay: Antibacterial activity Bacillus subtilis NBRC 3757 assessed as inhibition of bacterial growth after 48 hrs by two fold dilution method
# [29] = system: Staphylococcus epidermidis; assay: Antibacterial activity Staphylococcus epidermidis NBRC 12993 assessed as inhibition of bacterial growth after 48 hrs by two fold dilution method
# Micrococcus luteus = assay: Antibacterial activity Micrococcus luteus NBRC 333 assessed as inhibition of bacterial growth after 48 hrs by two fold dilution method
smiles,measurement,setting,value
Cc1cc(C(=O)/C=C/c2ccc(N3CCCCC3)cc2)ccc1O,MIC,Bacillus anthracis,1.56 µg/mL
CC1CCN(c2ccc(/C=C/C(=O)c3ccc(O)cc3O)cc2)CC1,MIC,Staphylococcus aureus [1],6.25 µg/mL
same,MIC,Staphylococcus aureus [2],3.12 µg/mL
same,MIC,Bacillus anthracis,1.56 µg/mL
O=C(/C=C/c1ccc(Br)cc1)c1ccc(Cl)cc1,MIC,Staphylococcus aureus [3],1000 µg/mL
same,MIC,Bacillus subtilis [4],1000 µg/mL
same,MIC,Escherichia coli [5],1000 µg/mL
COc1cccc(/C=C/C(=O)c2ccc(O)cc2O)c1OC,MIC,Escherichia coli [6],62.5 µg/mL
same,MIC,Bacillus cereus,62.5 µg/mL
same,MIC,Staphylococcus aureus [7],62.5 µg/mL
same,MIC,Bacillus subtilis [8],125 µg/mL
same,MIC,[9],125 µg/mL
COc1ccc(/C=C/C(=O)c2ccc(O)c(C)c2)cc1,MIC,Bacillus anthracis,12.5 µg/mL
O=C(/C=C/c1ccc(O)c(O)c1)c1ccc(-c2ccccc2)cc1,MIC,Staphylococcus aureus [10],25 µg/mL
same,MIC,Staphylococcus aureus [11],25 µg/mL
same,MIC,Staphylococcus aureus [12],25 µg/mL
same,MIC,Staphylococcus aureus [13],25 µg/mL
same,MIC,Staphylococcus aureus [14],25 µg/mL
same,MIC,Staphylococcus aureus [15],25 µg/mL
same,MIC,Staphylococcus aureus [16],25 µg/mL
same,MIC,Staphylococcus aureus [17],25 µg/mL
same,MIC,Staphylococcus aureus [18],25 µg/mL
same,MIC,Staphylococcus aureus [19],25 µg/mL
Nc1ccccc1C(=O)CC(c1ccc(Cl)cc1)S(=O)(=O)c1ccccc1 (stereo not given),MIC,Staphylococcus aureus [20],1.95 µg/mL
same,MIC,Klebsiella pneumoniae,25.5 µg/mL
CCN(CC)c1ccc(/C=C/C(=O)c2ccc(O)cc2O)cc1,MIC,Staphylococcus aureus [1],6.25 µg/mL
same,MIC,Staphylococcus aureus [2],3.12 µg/mL
same,MIC,Bacillus anthracis,3.12 µg/mL
COc1cc(C(=O)/C=C/c2ccc(O)cc2)ccc1O,MIC,Staphylococcus aureus [10],12.5 µg/mL
same,MIC,Staphylococcus aureus [11],12.5 µg/mL
same,MIC,Staphylococcus aureus [12],12.5 µg/mL
same,MIC,Staphylococcus aureus [13],12.5 µg/mL
same,MIC,Staphylococcus aureus [14],12.5 µg/mL
same,MIC,Staphylococcus aureus [15],12.5 µg/mL
same,MIC,Staphylococcus aureus [16],12.5 µg/mL
same,MIC,Staphylococcus aureus [17],12.5 µg/mL
same,MIC,Staphylococcus aureus [18],12.5 µg/mL
same,MIC,Staphylococcus aureus [19],12.5 µg/mL
CC(C)=CCc1c(O)ccc(C(=O)/C=C/c2ccc(O)c(C)c2)c1O,MIC,Staphylococcus aureus [21],16 µg/mL
same,MIC,Staphylococcus aureus [22],8 µg/mL
Cc1c(C(F)(F)F)cc(Cl)c(Cl)c1-n1nnc(C(=O)/C=C/c2cn(-c3ccccc3)nc2-c2ccc(Cl)cc2)c1C,MIC,Escherichia coli [23],3.12 µg/mL
same,MIC,Staphylococcus aureus [24],12.5 µg/mL
same,MIC,Pseudomonas aeruginosa,3.12 µg/mL
same,MIC,Bacillus subtilis [25],6.25 µg/mL
O=C(/C=C/c1ccc(Cl)cc1)c1ccc(O)cc1,MIC,Staphylococcus aureus [10],25 µg/mL
same,MIC,Staphylococcus aureus [11],25 µg/mL
same,MIC,Staphylococcus aureus [12],25 µg/mL
same,MIC,Staphylococcus aureus [13],25 µg/mL
same,MIC,Staphylococcus aureus [14],25 µg/mL
same,MIC,Staphylococcus aureus [15],25 µg/mL
same,MIC,Staphylococcus aureus [16],25 µg/mL
same,MIC,Staphylococcus aureus [17],25 µg/mL
same,MIC,Staphylococcus aureus [18],25 µg/mL
same,MIC,Staphylococcus aureus [19],25 µg/mL
"O=C(/C=C/c1ccccc1)c1ccc(O)cc1O [2',4'-DIHYDROXYCHALCONE]",MIC,Staphylococcus aureus [26],50 µg/mL
same,MIC,Staphylococcus aureus [27],100 µg/mL
CC(C)=CCc1cc(C(=O)/C=C/c2ccc(O)cc2)c(O)cc1O [BROUSSOCHALCONE B],MIC,Bacillus subtilis [28],8 µg/mL
same,MIC,[29],8 µg/mL
same,MIC,Micrococcus luteus,16 µg/mL
CC(C)=CCc1c(O)ccc(C(=O)/C=C/c2ccc(O)cc2)c1O [ISOBAVACHALCONE],MIC,Staphylococcus aureus [21],8 µg/mL
same,MIC,Staphylococcus aureus [22],8 µg/mL
same,MIC,Bacillus subtilis [28],4 µg/mL
same,MIC,[29],4 µg/mL
same,MIC,Micrococcus luteus,4 µg/mL
O=C(/C=C/c1ccc(O)cc1)c1ccc(O)cc1O [ISOLIQUIRITIGENIN],MIC,Escherichia coli [6],31.3 µg/mL
same,MIC,Bacillus cereus,15.5 µg/mL
same,MIC,Staphylococcus aureus [7],7.8 µg/mL
same,MIC,Bacillus subtilis [8],31.3 µg/mL
same,MIC,[9],15.5 µg/mL
COc1ccc(C(=O)/C=C/c2ccc(O)cc2)c(O)c1C/C=C(\C)CCC=C(C)C [XANTHOANGELOL F],MIC,Bacillus subtilis [28],64 µg/mL
same,MIC,[29],64 µg/mL
same,MIC,Micrococcus luteus,64 µg/mL
CC(C)=CCC/C(C)=C/Cc1c(O)ccc(C(=O)/C=C/c2ccc(O)cc2)c1O [XANTHOANGELOL],MIC,Bacillus subtilis [28],4 µg/mL
same,MIC,[29],4 µg/mL
same,MIC,Micrococcus luteus,4 µg/mL
